Test results: patent publication US8828401B2, “Cytotoxic peptides and antibody drug conjugates thereof” (Pfizer Inc., priority 2011, dated 2014)

Legend:
37622A1 NSCLC xenografts = test: 37622A1 NSCLC patient-derived xenografts with anti-Notch ADCs; format: in vivo, nude (Nu/Nu) female mice; conditions: 5 mg/kg Q4dx4
Procedure: (§1) Humanized anti-Notch antibodies, hu28 and hu75, and rat-human chimeric anti-Notch antibodies, ch28 and ch75, were conjugated to various linker-payload combinations and tested in 37622A1 non-small cell lung cancer (NSCLC), HCC2429 lung cancer, MDA-MB-468 breast cancer and N87 gastric cancer xenograft models. For each model described below the first dose was given on Day 0. The tumors were measured at least once a week and their volume was calculated with the formula: tumor volume (mm^3)=0.5×(tumor width^2)(tumor length). The mean tumor volumes (±S.E.M.) for each treatment group were calculated having a maximum of 10 animals and a minimum of 6 animals to be included.
The effects of anti-Notch ADCs were examined in immunodeficient mice on the in vivo growth of human tumor xenografts that were established from fragments of freshly resected 37622A1 NSCLC tumors obtained in accordance with appropriate consent procedures (Asterand). The 37622A1 NSCLC patient-derived xenografts were subcutaneously passaged in vivo as fragments from animal to animal in nude (Nu/Nu) female mice. When the tumors reached a volume of 150 to 300 mm^3, they were staged to ensure uniformity of the tumor size among various treatment groups. The 37622A1 NSCLC model was dosed intraveneously four times every four days (Q4dx4) with PBS vehicle, humanized anti-Notch ADCs, control huNeg-8.8 ADCs and cisplatin at the doses provided in Table 11.

N87 gastric xenografts = N87 gastric xenografts with anti-Notch ADCs; format: in vivo, nude (Nu/Nu) female mice; conditions: Dose 5 mg/kg Q4dx4 iv
Procedure: as §1
Similar in vivo experiments were performed with the N87 gastric cancer cell line as described above. […] When the tumors reached a volume of 250 to 450 mm^3, the tumors were staged to ensure uniformity of the tumor mass among various treatment groups. The N87 gastric model was dosed intraveneously Q4dx4 with PBS vehicle, humanized anti-Notch ADCs, control huNeg-8.8 ADCs and cisplatin at the doses provided in Tables 16 and 17.

MDA-MB-468/hNotch = test: In vitro cytotoxicity assay with anti-Notch ADCs (MTS); format: cell-based; conditions: average of 2-4 repeats where ± S.E.M. is given
Procedure: (§2) The effects of anti-Notch ADCs were assessed on 1) cell lines endogenously expressing Notch protein: HCC2429 (lung cancer), OVCAR3 (ovarian cancer) and MDA-MB-468 (breast cancer), 2) cell lines engineered to over-express Notch protein: MDA-MB-468/hNotch and U2OS/hNotch, and 3) a negative control cell line (SW900) using an MTS cellular viability indicator (Promega, Madison, Wis.). These cell lines were cultured with increasing concentrations of anti-Notch ADCs comprising humanized anti-Notch antibodies, hu28 and hu75, and rat-human chimeric anti-Notch antibodies, ch28 and ch75, conjugated to various linker-payload combinations of the present invention. As a specificity control for the anti-Notch-ADCs, non-targeted control-ADCs (huNeg8.8-ADCs or ch2H6-ADCs) were also tested on the same cell lines. After four days, viability of each culture was assessed. IC50 values were calculated by logistic non-linear regression and presented as ng Ab/mL. The drug antibody ratio (DAR) is also provided.

HCC2429 (lung cancer) = test: as above; format: cell-based; conditions: average of 2-4 repeats where ± S.E.M. is given
Procedure: as §2

U2OS/hNotch = test: as above; format: cell-based; conditions: average of 2-4 repeats where ± S.E.M. is given
Procedure: as §2

OVCAR3 (ovarian cancer) = test: as above; format: cell-based; conditions: average of 2-4 repeats where ± S.E.M. is given
Procedure: as §2

[1] = system: MDA-MB-468 (breast cancer); test: as above; format: cell-based; conditions: average of 2-4 repeats where ± S.E.M. is given
Procedure: as §2

N.N.[Cl][Pt][Cl] [Cisplatin, reference compound]
tumor volume (mm^3 ± SEM) (37622A1 NSCLC xenografts; DAY 4): 226 ± 15 mm^3 | tumor volume (mm^3 ± SEM) (37622A1 NSCLC xenografts; DAY 7): 280 ± 29 mm^3 | tumor volume (mm^3 ± SEM) (37622A1 NSCLC xenografts; DAY 11): 301 ± 34 mm^3 | tumor volume (mm^3 ± SEM) (37622A1 NSCLC xenografts; DAY 14): 345 ± 47 mm^3 | tumor volume (mm^3 ± SEM) (37622A1 NSCLC xenografts; DAY 18): 309 ± 37 mm^3 | tumor volume (mm^3 ± SEM) (37622A1 NSCLC xenografts; DAY 21): 373 ± 50 mm^3 | tumor volume (mm^3 ± SEM) (37622A1 NSCLC xenografts; DAY 25): 401 ± 58 mm^3 | tumor volume (mm^3 ± SEM) (37622A1 NSCLC xenografts; DAY 28): 446 ± 64 mm^3 | tumor volume (mm^3 ± SEM) (37622A1 NSCLC xenografts; DAY 32): 482 ± 62 mm^3 | tumor volume (mm^3 ± SEM) (37622A1 NSCLC xenografts; DAY 35): 587 ± 80 mm^3 | tumor volume (mm^3 ± SEM) (37622A1 NSCLC xenografts; DAY 39): 591 ± 83 mm^3 | tumor volume (mm^3 ± SEM) (37622A1 NSCLC xenografts; DAY 42): 612 ± 92 mm^3 | tumor volume (mm^3 ± SEM) (37622A1 NSCLC xenografts; DAY 46): 723 ± 119 mm^3 | tumor volume (mm^3 ± SEM) (37622A1 NSCLC xenografts; DAY 49): 853 ± 139 mm^3 | tumor volume (mm^3 ± SEM) (37622A1 NSCLC xenografts; DAY 53): 970 ± 193 mm^3 | tumor volume (mm^3 ± SEM) (37622A1 NSCLC xenografts; DAY 56): 1215 ± 231 mm^3 | tumor volume (mm^3 ± SEM) (37622A1 NSCLC xenografts; DAY 60): 1428 ± 273 mm^3 | tumor volume (mm^3 ± SEM) (37622A1 NSCLC xenografts; DAY −1): 185 ± 11 mm^3 | tumor volume (mm^3 ± SEM) (N87 gastric xenografts; DAY 0): 328 ± 20 mm^3 | tumor volume (mm^3 ± SEM) (N87 gastric xenografts; DAY 4): 414 ± 27 mm^3 | tumor volume (mm^3 ± SEM) (N87 gastric xenografts; DAY 7): 520 ± 26 mm^3 | tumor volume (mm^3 ± SEM) (N87 gastric xenografts; DAY 11): 501 ± 29 mm^3 | tumor volume (mm^3 ± SEM) (N87 gastric xenografts; DAY 14): 637 ± 31 mm^3

B1: ch28-vc0101: rat-human chimeric anti-Notch antibody ch28 conjugated to mcValCitPABC-#54 (conjugate)
VH: EVQLVESGGGLVQPGRSLTLSCVASGFTFRDYGMTWIRQAPGKGLTWVAYISSGSNYIYYAEAVKGRFTISRDNAKNTLYLQMTSLRSEDTALYFCTRRGPFVLDAWGQGASVTVSS
VL: DIQMTQSPSFLSASVGDRVTINCKASQSINRYLHWFQQKLGEAPKLLIYNANGLQTGIPSRFSGSGSGTDFTLTISSLQSEDVATYFCLQHNTWPDTFGAGTKLELK
IC50 (ng Ab/mL) ± S.E.M. (MDA-MB-468/hNotch): 4 ± 0.5 ng Ab/mL | IC50 (ng Ab/mL) ± S.E.M. (HCC2429 (lung cancer)): 3230 ± 1116.5 ng Ab/mL | IC50 (ng Ab/mL) ± S.E.M. (U2OS/hNotch): 95 ± 18.2 ng Ab/mL | IC50 (ng Ab/mL) ± S.E.M. (OVCAR3 (ovarian cancer)): 635 ng Ab/mL | IC50 (ng Ab/mL) ± S.E.M. [1]: 5443 ± 2630.9 ng Ab/mL

B2: ch75-vc0101: rat-human chimeric anti-Notch antibody ch75 conjugated to mcValCitPABC-#54 (conjugate)
VH: QVKLLQSGAALVKPGASVKMSCKASGYAFTDYWVTWVKQSHGKSLEWIGEISPNSGGTNFNEKFKGKATLTVDKSTSTAYMELSRLTSEDSAIYYCTRGEIRYNWFAYWGQGTLVTVSS
VL: DIQMTQSPSSLSASVGDRVTITCKASQNVGNNIAWYQQKPGKAPKLLIYYASNRYTGVPSRFSGSGYGTDFTLTISSLQPEDFATYYCQRLYNSPFTFGGGTKVEIK
IC50 (ng Ab/mL) ± S.E.M. (MDA-MB-468/hNotch): 24 ± 4.0 ng Ab/mL | IC50 (ng Ab/mL) ± S.E.M. (HCC2429 (lung cancer)): 2112 ± 826.0 ng Ab/mL | IC50 (ng Ab/mL) ± S.E.M. [1]: 4064 ± 1793.9 ng Ab/mL

B3: ch28-vc6780 (conjugate)
VH: EVQLVESGGGLVQPGRSLTLSCVASGFTFRDYGMTWIRQAPGKGLTWVAYISSGSNYIYYAEAVKGRFTISRDNAKNTLYLQMTSLRSEDTALYFCTRRGPFVLDAWGQGASVTVSS
VL: DIQMTQSPSFLSASVGDRVTINCKASQSINRYLHWFQQKLGEAPKLLIYNANGLQTGIPSRFSGSGSGTDFTLTISSLQSEDVATYFCLQHNTWPDTFGAGTKLELK
IC50 (ng Ab/mL) ± S.E.M. (MDA-MB-468/hNotch): 3 ± 0.5 ng Ab/mL | IC50 (ng Ab/mL) ± S.E.M. (HCC2429 (lung cancer)): 324 ± 78.9 ng Ab/mL | IC50 (ng Ab/mL) ± S.E.M. (OVCAR3 (ovarian cancer)): 90 ± 48.5 ng Ab/mL | IC50 (ng Ab/mL) ± S.E.M. [1]: 4407 ± 2128.2 ng Ab/mL

B4: ch75-vc6780 (conjugate)
VH: QVKLLQSGAALVKPGASVKMSCKASGYAFTDYWVTWVKQSHGKSLEWIGEISPNSGGTNFNEKFKGKATLTVDKSTSTAYMELSRLTSEDSAIYYCTRGEIRYNWFAYWGQGTLVTVSS
VL: DIQMTQSPSSLSASVGDRVTITCKASQNVGNNIAWYQQKPGKAPKLLIYYASNRYTGVPSRFSGSGYGTDFTLTISSLQPEDFATYYCQRLYNSPFTFGGGTKVEIK
IC50 (ng Ab/mL) ± S.E.M. (MDA-MB-468/hNotch): 21 ± 3.5 ng Ab/mL | IC50 (ng Ab/mL) ± S.E.M. (HCC2429 (lung cancer)): 1004 ± 177.0 ng Ab/mL | IC50 (ng Ab/mL) ± S.E.M. (OVCAR3 (ovarian cancer)): 922 ng Ab/mL | IC50 (ng Ab/mL) ± S.E.M. [1]: 6873 ± 4230.0 ng Ab/mL
